Like-named read-outs stand apart in the source and are kept apart here.
Tests used:
MCF-7-cells = test: Concentration dependent cytotoxicity test (IC50) on MCF-7 cells; assay type: cell-based
Description: (§1) Measurement of IC50-values was performed as described by Ott, I. et al., Journal of Medicinal Chemistry, 2005, 48 (2): 622-629. But unlike described in the literature, the experiments with MCF-7-cells were stopped after 96 hours and experiments with MDA-MB-231-cells were stopped after 72 hours.

MDA-MB-231-cells = test: Concentration dependent cytotoxicity test (IC50) on MDA-MB-231 cells; assay type: cell-based
Description: as §1

LNCaP-FGC-cells = test: Time dependent test (crystal violet assay) on LNCaP-FGC-cells; assay type: cell-based
Description: The time dependent tests were performed according to Reile, H. et al.: "Computerized Determination of Growth Kinetic Curves and Doubling Times from Cells in Microculture", Analytical Biochemistry, 1990, 187 (2): 262-267; Bernhardt, G. et al.: "Standardized kinetic microassay to quantifiy differential chemosensitivity on the basis of proliferative activity", Journal of Research Clin. Oncol., 1992, 118: 35-43 and Gust, R. et al.: "Development of Cobalt(3,4-diarylsalen) Complexes as Tumor Therapeutics", Journal of Medicinal Chemistry, 2004, 47 (24): 5837-5846.
Determining the cell mass in the crystal violet assay the interpretation of the received values was the following: […]

MCF-7 cells [1] = settings: Ghezzi, A. et al., 2004; cited from earlier work
[2] = test system: supercoiled plasmid DNA (pSK Bluescript); test: DNA cleavage reactions with plasmid DNA on agarose gels; assay type: biochemical; settings: for DNA cleaving effect: 1 h at 37 °C
Description: General procedure for DNA cleavage reactions with plasmid DNA on agarose gels
100 µl reaction mixture contained 1 µg of supercoiled plasmid DNA (pSK Bluescript) in a tris-HCI buffer at pH 7.0, 1 µl of iron complex solution at the desired concentration (10 mM to 10 µM in DMSO) and in some cases 1 µl of 100 µM dithiothreitol solution resp. 1 µl of 1 mM mercaptoethanol solution. After incubation at 37 °C for the indicated time, 1 µl of loading buffer (0.25 % bromophenol blue, 0,25 % xylene cyanol, 30 % glycerin in H2O) was added to 5 µl reaction mixture (containing 50 ng plasmid DNA) and subsequently loaded onto a 0.8 % agarose gel. One µl of 1 kb-DNA-ladder (NewEnglandBiolabs, #N3232L) was loaded for estimation of size and amount of loaded DNA sample. The electrophoresis was carried out for ~ 45 min at 100 V in TBE buffer at pH 8.3. Gels were stained with etidium bromide (1 µg/ml) and photographed under 254 nm UV light.

MCF-7 cells [3] = test: Time dependent test (crystal violet assay) on MCF-7 cells; assay type: cell-based
MDA-MB-231 cells = test: Time dependent test (crystal violet assay) on MDA-MB-231 cells; assay type: cell-based
HeLa cells = test: Time dependent test (crystal violet assay) on HeLa cells; assay type: cell-based
[4] = Homo sapiens, MCF7, MCF-7, stopped after 96 hours, read-out: IC50
[5] = Homo sapiens, MDA-MB-231, stopped after 72 hours, read-out: IC50
[6] = MCF-7, stopped after 96 hours, read-out: IC50
[7] = MDA-MB-231, stopped after 72 hours, read-out: IC50
[8] = higher concentrations (1-10 µM)
[9] = low concentrations (0,1 µM), in the presence of a reducing agent

O=c1[nH]cc(F)c(=O)[nH]1 [5-fluorouracil]
IC50 (MCF-7-cells; [4]): 4.8 µM | IC50 (MDA-MB-231-cells; [5]): 9.6 µM

N.N.O=C([O-])C1(C(=O)[O-])CCC1.[Pt+2] [Carboplatin]
minimum T/Ccorr- resp. τ-value (LNCaP-FGC-cells; 0.5 µM): 69.5% | minimum T/Ccorr- resp. τ-value (LNCaP-FGC-cells; 1 µM): 55.5% | minimum T/Ccorr- resp. τ-value (LNCaP-FGC-cells; 5 µM): 19.6% | enrichment in comparison with the outer medium (MCF-7 cells [1]): 1,6

C#CCOC(=O)c1ccccc1OC(C)=O.[C-]#[O+].[C-]#[O+].[C-]#[O+].[C-]#[O+].[C-]#[O+].[C-]#[O+].[Co].[Co] [Co-Ass, Hexacarbonyl[2-propyn-1-ylacetylsalicylat]dicobalt]
IC50 (MCF-7-cells; [6]): 1.4 µM | IC50 (MDA-MB-231-cells; [7]): 1.9 µM

[Fe+2].[O-]c1ccccc1C=Nc1ccccc1N=Cc1ccccc1[O-] [Fe(II)salophen, [N,N'-Bis(salicylidene)phenylene-1,2-diamine]-iron(II)]
DNA cleaving effect [2, 8]: DNA double strand breakages | DNA cleaving effect [2, 9]: DNA single strand breakages | IC50 (MCF-7-cells; [6]): 0.4 µM | IC50 (MDA-MB-231-cells; [7]): 0.1 µM | minimum T/Ccorr- resp. τ-value (MCF-7 cells [3]; MCF-7, 0.05 µM): 96.5% | minimum T/Ccorr- resp. τ-value (MCF-7 cells [3]; MCF-7, 0.1 µM): 96.7% | minimum T/Ccorr- resp. τ-value (MCF-7 cells [3]; MCF-7, 0.5 µM): 35.7% | minimum T/Ccorr- resp. τ-value (MCF-7 cells [3]; MCF-7, 1 µM): -35.9% | minimum T/Ccorr- resp. τ-value (MDA-MB-231 cells; MDA-MB-231, 0.05 µM): 90.0% | minimum T/Ccorr- resp. τ-value (MDA-MB-231 cells; MDA-MB-231, 0.1 µM): 41.9% | minimum T/Ccorr- resp. τ-value (MDA-MB-231 cells; MDA-MB-231, 0.5 µM): -19.1% | minimum T/Ccorr- resp. τ-value (MDA-MB-231 cells; MDA-MB-231, 1 µM): -29.7% | minimum T/Ccorr- resp. τ-value (LNCaP-FGC-cells; 0.1 µM): 47.3% | minimum T/Ccorr- resp. τ-value (LNCaP-FGC-cells; 0.5 µM): 8.9% | minimum T/Ccorr- resp. τ-value (LNCaP-FGC-cells; 1 µM): -25.6%

[Cl-].[Fe+3].[O-]c1ccccc1C=Nc1ccccc1N=Cc1ccccc1[O-] [Fe(III)salophen chloride, [N,N'-Bis(salicylidene)phenylene-1,2-diamine]-iron(III)-chloride]
DNA cleaving effect [2, 8]: DNA double strand breakages | DNA cleaving effect [2, 9]: DNA single strand breakages | IC50 (MCF-7-cells; [6]): 0.3 µM | IC50 (MDA-MB-231-cells; [7]): 0.01 µM | minimum T/Ccorr- resp. τ-value (MCF-7 cells [3]; MCF-7, 0.05 µM): 92.6% | minimum T/Ccorr- resp. τ-value (MCF-7 cells [3]; MCF-7, 0.1 µM): 80.4% | effect on cell mass (interpretation of T/Ccorr resp. τ) (MCF-7 cells [3]; MCF-7, 0.5 µM): cytocide effect (T/Ccorr or τ < 0 %) | minimum T/Ccorr- resp. τ-value (MCF-7 cells [3]; MCF-7, 0.5 µM): -23.4% | minimum T/Ccorr- resp. τ-value (MCF-7 cells [3]; MCF-7, 1 µM): -50.8% | minimum T/Ccorr- resp. τ-value (MDA-MB-231 cells; MDA-MB-231, 0.05 µM): 46.0% | minimum T/Ccorr- resp. τ-value (MDA-MB-231 cells; MDA-MB-231, 0.1 µM): 66.2% | minimum T/Ccorr- resp. τ-value (MDA-MB-231 cells; MDA-MB-231, 0.5 µM): -27.8% | minimum T/Ccorr- resp. τ-value (MDA-MB-231 cells; MDA-MB-231, 1 µM): -40.8% | minimum T/Ccorr- resp. τ-value (HeLa cells; 0.1 µM): 36.2% | minimum T/Ccorr- resp. τ-value (HeLa cells; 0.5 µM): 52.1% | minimum T/Ccorr- resp. τ-value (HeLa cells; 1 µM): -26.0% | minimum T/Ccorr- resp. τ-value (LNCaP-FGC-cells; 0.1 µM): 34.4% | minimum T/Ccorr- resp. τ-value (LNCaP-FGC-cells; 0.5 µM): 3.6% | minimum T/Ccorr- resp. τ-value (LNCaP-FGC-cells; 1 µM): -19.5%

CC(=O)[O-].CC(=O)[O-].[Fe+2] [Fe(OAc)2]
IC50 (MCF-7-cells; [6]): > 50 µM | IC50 (MDA-MB-231-cells; [7]): > 50 µM

[Cl][Fe]([Cl])[Cl] [FeCl3]
IC50 (MCF-7-cells; [6]): > 100 µM | IC50 (MDA-MB-231-cells; [7]): > 100 µM

N[C@@H](Cc1ccc(N(CCCl)CCCl)cc1)C(=O)O [Melphalan]
IC50 (MCF-7-cells; Homo sapiens, MCF7, 96 h): 5.7 µM | IC50 (MDA-MB-231-cells; Homo sapiens, MDA-MB-231, 72 h): 3.9 µM

O=C1[O][Pt]2([NH][C@@H]3CCCC[C@H]3[NH]2)[O]C1=O [Oxaliplatin]
minimum T/Ccorr- resp. τ-value (LNCaP-FGC-cells; 0.5 µM): 12.7% | minimum T/Ccorr- resp. τ-value (LNCaP-FGC-cells; 1 µM): -0.6% | minimum T/Ccorr- resp. τ-value (LNCaP-FGC-cells; 5 µM): -31.0% | enrichment in comparison with the outer medium (MCF-7 cells [1]): sixfold

N.N.[Cl][Pt][Cl] [cisplatin, reference compound]
IC50 (MCF-7-cells; [6]): 2 µM | IC50 (MDA-MB-231-cells; [7]): 4 µM | minimum T/Ccorr- resp. τ-value (MCF-7 cells [3]; MCF-7, 0.5 µM): 55.1% | minimum T/Ccorr- resp. τ-value (MCF-7 cells [3]; MCF-7, 1 µM): 2.2% | minimum T/Ccorr- resp. τ-value (MDA-MB-231 cells; MDA-MB-231, 0.5 µM): 79.7% | minimum T/Ccorr- resp. τ-value (MDA-MB-231 cells; MDA-MB-231, 1 µM): 69.0% | minimum T/Ccorr- resp. τ-value (HeLa cells; 0.5 µM): 55.9% | minimum T/Ccorr- resp. τ-value (HeLa cells; 1 µM): 33.5% | minimum T/Ccorr- resp. τ-value (LNCaP-FGC-cells; 0.5 µM): 59.0% | minimum T/Ccorr- resp. τ-value (LNCaP-FGC-cells; 1 µM): 32.7% | minimum T/Ccorr- resp. τ-value (LNCaP-FGC-cells; 5 µM): 6.7% | enrichment in comparison with the outer medium (MCF-7 cells [1]): fivefold

Oc1ccccc1C=Nc1ccccc1N=Cc1ccccc1O [ligand, N,N'-bis(salicylidene)-phenylene-1,2-diamine, reference compound]
DNA decomposition ([2]; 1 h incubation at 37 °C, with or without additional reducing agents (DTT, 2-ME)): not able to decompose DNA

Nc1ccccc1N [o-phenylenediamine]
IC50 (MCF-7-cells; [4]): 5.1 µM | IC50 (MDA-MB-231-cells; [5]): 23.5 µM
